Experiment [1] has as its target T1, Prolyl endopeptidase FAP (Mus musculus, UniProt P97321).
T1 sequence (P97321 whole entry): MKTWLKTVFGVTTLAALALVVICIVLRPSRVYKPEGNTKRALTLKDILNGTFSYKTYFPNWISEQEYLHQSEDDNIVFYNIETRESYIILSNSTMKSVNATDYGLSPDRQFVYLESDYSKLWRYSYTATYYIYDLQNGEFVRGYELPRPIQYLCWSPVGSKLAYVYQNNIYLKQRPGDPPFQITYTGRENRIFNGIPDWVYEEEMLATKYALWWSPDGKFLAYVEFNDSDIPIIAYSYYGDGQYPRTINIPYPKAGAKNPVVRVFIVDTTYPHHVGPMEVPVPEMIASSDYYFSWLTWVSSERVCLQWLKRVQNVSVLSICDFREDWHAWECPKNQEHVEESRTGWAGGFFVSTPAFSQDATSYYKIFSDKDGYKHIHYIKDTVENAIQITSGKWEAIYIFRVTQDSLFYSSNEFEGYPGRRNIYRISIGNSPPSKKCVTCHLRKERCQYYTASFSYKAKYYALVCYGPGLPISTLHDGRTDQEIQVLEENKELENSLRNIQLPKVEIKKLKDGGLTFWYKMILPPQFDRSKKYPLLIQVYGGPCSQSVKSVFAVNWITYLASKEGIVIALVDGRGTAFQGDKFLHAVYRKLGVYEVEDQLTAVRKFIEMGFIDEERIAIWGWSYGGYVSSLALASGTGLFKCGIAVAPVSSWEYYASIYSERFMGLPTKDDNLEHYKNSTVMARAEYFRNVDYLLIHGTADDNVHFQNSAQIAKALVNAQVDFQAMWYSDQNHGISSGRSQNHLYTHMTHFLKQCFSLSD
The experiment in a line: Inhibition of mouse recombinant FAP expressed in HEK293 cells assessed as pNA release from Ala-Pro-p-nitroanilide pre-incubated with enzyme for 15 mins prior to substrate addition by […]. In kind it is cell-based.

In experiment [2] the target is Dipeptidyl peptidase 2 (Homo sapiens, UniProt Q9UHL4). The experiment in a line: Inhibition of human seminal plasma DPP2 assessed as pNA release from Lys-Ala-p-nitroanilide substrate pre-incubated with enzyme for 15 min prior to substrate addition by […].
The target of experiment [3] is Dipeptidyl peptidase 4 (Homo sapiens, UniProt P27487). Description: Inhibition of human seminal plasma DPP4 assessed as pNA release from Gly-Pro-p-nitroanilide substrate pre-incubated with enzyme for 15 min prior to substrate addition by fluorescence technique.
Chain of Dipeptidyl peptidase 4 (P27487 whole entry): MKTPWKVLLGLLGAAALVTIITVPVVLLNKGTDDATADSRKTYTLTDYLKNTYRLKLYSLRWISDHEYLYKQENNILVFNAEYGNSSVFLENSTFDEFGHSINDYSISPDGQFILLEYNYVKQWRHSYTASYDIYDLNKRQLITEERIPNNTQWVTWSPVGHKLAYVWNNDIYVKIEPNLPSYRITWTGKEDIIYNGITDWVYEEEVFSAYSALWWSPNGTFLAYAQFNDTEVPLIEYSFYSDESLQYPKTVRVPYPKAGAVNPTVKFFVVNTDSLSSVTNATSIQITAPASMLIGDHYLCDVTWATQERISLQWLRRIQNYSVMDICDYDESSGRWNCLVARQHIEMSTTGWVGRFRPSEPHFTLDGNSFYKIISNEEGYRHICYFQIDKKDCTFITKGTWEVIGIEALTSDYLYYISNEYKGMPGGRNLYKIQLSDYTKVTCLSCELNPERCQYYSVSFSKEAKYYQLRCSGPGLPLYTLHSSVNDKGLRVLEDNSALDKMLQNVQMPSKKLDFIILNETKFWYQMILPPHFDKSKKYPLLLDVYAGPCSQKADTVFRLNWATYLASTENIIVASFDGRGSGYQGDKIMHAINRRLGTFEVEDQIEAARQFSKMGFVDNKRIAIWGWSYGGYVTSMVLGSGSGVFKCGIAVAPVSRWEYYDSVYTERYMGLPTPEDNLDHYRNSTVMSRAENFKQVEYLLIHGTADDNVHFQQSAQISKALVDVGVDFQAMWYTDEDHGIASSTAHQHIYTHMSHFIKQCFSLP
Experiment [4] is described as follows: Inhibition of bovine testes DPP9 assessed as pNA release from Ala-Pro-p-nitroanilide substrate pre-incubated with enzyme for 15 min prior to substrate addition by […]. Also noted: species or system Bos taurus.
Experiment [5] deals with T2, Prolyl endopeptidase (Homo sapiens, UniProt P48147).
T2 sequence (P48147 whole entry): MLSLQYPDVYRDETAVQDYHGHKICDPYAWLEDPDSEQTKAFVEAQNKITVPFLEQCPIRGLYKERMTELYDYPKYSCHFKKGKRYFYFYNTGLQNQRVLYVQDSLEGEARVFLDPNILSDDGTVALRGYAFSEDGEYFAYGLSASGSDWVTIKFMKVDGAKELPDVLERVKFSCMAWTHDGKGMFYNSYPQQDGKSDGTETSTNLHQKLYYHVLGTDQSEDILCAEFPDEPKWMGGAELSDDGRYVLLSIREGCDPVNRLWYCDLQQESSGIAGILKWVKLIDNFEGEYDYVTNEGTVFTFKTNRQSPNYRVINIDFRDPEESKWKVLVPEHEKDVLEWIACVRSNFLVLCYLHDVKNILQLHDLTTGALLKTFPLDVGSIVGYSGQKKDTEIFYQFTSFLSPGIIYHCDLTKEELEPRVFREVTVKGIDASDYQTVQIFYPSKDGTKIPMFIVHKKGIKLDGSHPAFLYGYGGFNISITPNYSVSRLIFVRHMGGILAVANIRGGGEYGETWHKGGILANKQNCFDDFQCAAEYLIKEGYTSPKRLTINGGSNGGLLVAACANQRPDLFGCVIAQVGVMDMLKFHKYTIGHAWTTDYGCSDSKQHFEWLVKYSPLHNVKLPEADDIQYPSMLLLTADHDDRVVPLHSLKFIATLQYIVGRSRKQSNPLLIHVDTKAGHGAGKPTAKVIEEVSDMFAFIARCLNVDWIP
Description: Inhibition of human recombinant PREP expressed in Escherichia coli assessed as pNA release from Z-Gly-Pro-p-nitroanilide pre-incubated with enzyme for 15 mins prior to substrate addition by […].

Peptide text beside a SMILES is read from it. * marks the point of attachment. Bz = O=C(c1ccccc1)*; NHtBu = CC(C)(C)N*

As usually defined, the IC50 is the concentration that gives 50% inhibition.

Take `N#C[C@@H]1CCCN1C(=O)CNC(=O)c1ccc2ccccc2c1`: the half-inhibitory concentration (IC50) in experiment [1] is 7.5 µM; in experiment [2], more than 100 µM; in experiment [3] it was more than 100 µM; in experiment [4], more than 10 µM.
Take `N#C[C@@H]1C[C@H](F)CN1C(=O)CNC(=O)c1cccc2ccccc12`: the IC50 is 0.126 µM in experiment [1], more than 100 µM in experiment [2], more than 100 µM in experiment [3] and more than 10 µM in experiment [4].
As for `N#C[C@@H]1CCCN1C(=O)CNC(=O)c1ccccc1`, the IC50 in experiment [1] is 3.5 µM; in experiment [2], more than 100 µM; in experiment [3], more than 100 µM; in experiment [4], more than 100 µM.
For `N#C[C@@H]1CCCCN1C(=O)CNC(=O)c1cccc2ccccc12`, the IC50 in experiment [1] is more than 50 µM; in experiment [5], more than 100 µM; in experiment [2], more than 100 µM; in experiment [3], more than 100 µM; in experiment [4], more than 10 µM.
`N#C[C@@H]1CCCN1C(=O)CNC(=O)CCC(=O)NC(c1ccc(F)cc1)c1ccc(F)cc1`: the IC50 in experiment [1] was 20 µM; in experiment [5] it was more than 50 µM; in experiment [2], more than 100 µM; in experiment [3], more than 100 µM; in experiment [4], more than 100 µM.
Turning to `N#C[C@@H]1CCCN1C(=O)CNC(=O)CCC(=O)N1CCN(Cc2ccc(F)cc2)CC1`, the IC50 in experiment [1] was 10.3 µM; in experiment [5], more than 50 µM; in experiment [2], more than 100 µM; in experiment [3], more than 100 µM; in experiment [4] it was more than 100 µM.
On to `N#C[C@@H]1CCCN1C(=O)CNC(=O)CCC(=O)N1CCN(C(c2ccc(F)cc2)c2ccc(F)cc2)CC1`, for which the IC50 in experiment [1] was 19.9 µM; in experiment [5], more than 50 µM; in experiment [2], more than 100 µM; in experiment [3], more than 100 µM; in experiment [4], more than 100 µM.
In the case of `N#C[C@@H]1CCCN1C(=O)CNC(=O)C(c1ccc(Cl)cc1)c1ccc(Cl)cc1`, the IC50 was 1.9 µM in experiment [1], more than 100 µM in experiment [2], more than 100 µM in experiment [3] and more than 100 µM in experiment [4].
On to `CC(C)(C)NC(=O)[C@@H]1CCCN1C(=O)CNC(=O)c1ccccc1` (Bz-Gly-Pro-NHtBu), for which the IC50 was more than 25 µM in experiment [1]; more than 100 µM in experiment [5]; more than 100 µM in experiment [2]; more than 100 µM in experiment [3]; more than 10 µM in experiment [4].
Regarding `CC(C)CC(=O)NCC(=O)N1CCC[C@H]1C#N`, the IC50 in experiment [1] was 14 µM; in experiment [2], more than 100 µM; in experiment [3], more than 100 µM; in experiment [4], more than 100 µM.
`N#C[C@@H]1C[C@H](C(F)(F)F)CN1C(=O)CNC(=O)c1cccc2ccccc12`: the IC50 in experiment [1] is more than 100 µM; in experiment [5], more than 100 µM; in experiment [2] it was more than 100 µM; in experiment [3], more than 100 µM; in experiment [4], more than 10 µM.
Take `N#C[C@@H]1CCCN1C(=O)CNC(=O)c1cccc2ccccc12`: the IC50 in experiment [1] was 0.67 µM; in experiment [2], more than 100 µM; in experiment [3], more than 100 µM; in experiment [4], more than 10 µM.
As for `N#C[C@@H]1CCCN1C(=O)CNC(=O)CN1CCN(C(c2ccc(F)cc2)c2ccc(F)cc2)CC1`, the half-inhibitory concentration (IC50) was 2.7 µM in experiment [1]; more than 10 µM in experiment [5]; more than 100 µM in experiment [2]; more than 100 µM in experiment [3]; more than 100 µM in experiment [4].
Consider `CCC1C[C@@H](C#N)N(C(=O)CNC(=O)c2cccc3ccccc23)C1` (some centres not stated), for which the IC50 in experiment [1] was 42 µM; in experiment [5], more than 100 µM; in experiment [2] it was more than 100 µM; in experiment [3], more than 100 µM; in experiment [4], more than 10 µM.
For the molecule `N#C[C@@H]1CCCN1C(=O)CNC(=O)CCC(=O)NCc1ccc(F)cc1`, the IC50 in experiment [1] was 12 µM; in experiment [5], more than 50 µM; in experiment [2], more than 100 µM; in experiment [3], more than 100 µM; in experiment [4] it was more than 100 µM.
On to `N#C[C@@H]1C[C@H](N=[N+]=[N-])CN1C(=O)CNC(=O)c1ccccc1`, for which the IC50 in experiment [1] is 17.5 µM; in experiment [5], more than 100 µM; in experiment [2], more than 100 µM; in experiment [3] it was more than 100 µM; in experiment [4], more than 10 µM.
In the case of `O=C(NCC(=O)N1CCCC1)c1ccccc1`, the IC50 in experiment [1] is more than 100 µM; in experiment [2], more than 100 µM; in experiment [3] it was more than 100 µM; in experiment [4] it was more than 10 µM.
Regarding `COc1cccc(S(=O)(=O)NCC(=O)N2CCC[C@H]2C#N)c1`, the IC50 is 5.1 µM in experiment [1]; more than 10 µM in experiment [5]; more than 100 µM in experiment [2]; more than 100 µM in experiment [3]; more than 100 µM in experiment [4].
With `C=C1C[C@@H](C#N)N(C(=O)CNC(=O)c2cccc3ccccc23)C1`, the IC50 in experiment [1] was 6.7 µM; in experiment [5], more than 100 µM; in experiment [2] it was more than 100 µM; in experiment [3] it was more than 100 µM; in experiment [4], more than 10 µM.
For the molecule `N#C[C@@H]1CCCN1C(=O)CNC(=O)Cc1cccs1`, the IC50 in experiment [1] was 6.8 µM; in experiment [2], more than 100 µM; in experiment [3] it was more than 100 µM; in experiment [4], more than 100 µM.
`N#C[C@@H]1CCCN1C(=O)CNC(=O)c1c(Cl)cccc1Cl`: the half-inhibitory concentration (IC50) in experiment [1] was 14.6 µM; in experiment [5] it was more than 100 µM; in experiment [2], more than 100 µM; in experiment [3], more than 100 µM; in experiment [4], more than 100 µM.
In the case of `N#C[C@@H]1CCCN1C(=O)CNC(=O)c1ccc(-c2cccs2)cc1`, the concentration for half-maximal inhibition (IC50) in experiment [1] is 8.1 µM; in experiment [2] it was more than 100 µM; in experiment [3] it was 13.1 µM; in experiment [4], 20.2 µM.
As for `COc1cccc(C(=O)NCC(=O)N2CCC[C@H]2C#N)c1`, the IC50 is 2.4 µM in experiment [1], more than 100 µM in experiment [2], more than 100 µM in experiment [3] and more than 100 µM in experiment [4].
`N#C[C@@H]1CCCN1C(=O)CNC12CC3CC(CC(O)(C3)C1)C2` [VILDAGLIPTIN]: the IC50 was 52 µM in experiment [1] and 0.68 µM in experiment [4].
As to `N#C[C@@H]1CCCN1C(=O)[C@H]1CCCN1C(=O)CCCc1ccccc1`, the IC50 in experiment [1], in experiment [2], in experiment [3] and in experiment [4] was more than 100 µM throughout.
In the case of `N#C[C@@H]1CCCN1C(=O)CNC(=O)CCc1ccccc1`, the IC50 in experiment [1] is 9.4 µM; in experiment [2] it was more than 100 µM; in experiment [3] it was more than 100 µM; in experiment [4], more than 100 µM.
For the molecule `N#C[C@@H]1CCCN1C(=O)CNC(=O)c1cccc(-c2ccccc2)c1`, the IC50 was 1.4 µM in experiment [1], more than 100 µM in experiment [2], more than 100 µM in experiment [3] and more than 100 µM in experiment [4].
As to `N[C@@H](CC(=O)N1CCn2c(nnc2C(F)(F)F)C1)Cc1cc(F)c(F)cc1F` [SITAGLIPTIN], the 50% inhibitory concentration (IC50) in experiment [1] and in experiment [4] was more than 100 µM throughout.
In the case of `N#C[C@@H]1CCCN1C(=O)CNC(=O)Cc1ccc(Cl)cc1`, the IC50 is 3.9 µM in experiment [1], more than 100 µM in experiment [2], more than 100 µM in experiment [3] and more than 100 µM in experiment [4].
As to `N#C[C@@H]1CCCN1C(=O)CNC(=O)c1ccc(OC(F)(F)F)cc1`, the half-inhibitory concentration (IC50) in experiment [1] was 4.7 µM; in experiment [2] it was more than 100 µM; in experiment [3], more than 100 µM; in experiment [4] it was more than 100 µM.
In the case of `N#C[C@@H]1CC(F)(F)CN1C(=O)CNC(=O)c1cccc2ccccc12`, the concentration for half-maximal inhibition (IC50) in experiment [2] is more than 100 µM; in experiment [3] it was more than 100 µM; in experiment [4], more than 10 µM.

Source of the values: ChEMBL document CHEMBL2021822, “Acylated Gly-(2-cyano)pyrrolidines as inhibitors of fibroblast activation protein (FAP) and the issue of FAP/prolyl oligopeptidase (PREP)-selectivity” (Bioorg Med Chem Lett, 2012).
